Results reported in ChEMBL document CHEMBL1201862, “PubChem BioAssay data set” (2004).
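Five compound concentrations were applied to cells in 96-well plates for 48 hours; endpoints were derived by simple linear interpolation of the resulting dose-response curve. GI50: concentration for 50% inhibition of growth.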 The source made the active and inactive calls. Cut-off read from the data, not from the text of the source: active = GI50 up to about 1.1 µM and inactive = higher.

What was measured:
Assay in all cases: NCI-60 cell line screen, 48 h
[1] = test system: HCT-116
[2] = test system: SF-539
[3] = test system: HT-29
[4] = test system: NCI-H226
[5] = test system: PC-3
[6] = test system: NCI/ADR-RES
[7] = test system: DU-145
[8] = test system: HCT-15
[9] = test system: A498
[10] = test system: A549
[11] = test system: CAKI-1
[12] = test system: Hs-578T
[13] = test system: OVCAR-8
[14] = test system: KM12
[15] = test system: BT-549
[16] = test system: MDA-MB-231
[17] = test system: LOX IMVI
[18] = test system: OVCAR-3
[19] = test system: UACC-257
[20] = test system: SF-295
[21] = test system: UO-31
[22] = test system: SNB-75
[23] = test system: COLO 205
[24] = test system: RXF 393
[25] = test system: SK-MEL-2
[26] = test system: MDA-MB-435
[27] = test system: UACC-62
[28] = test system: M14
[29] = test system: SNB-19
[30] = test system: SF-268
[31] = test system: IGROV-1
[32] = test system: MOLT-4
[33] = test system: OVCAR-5
[34] = test system: K562
[35] = test system: HOP-92
[36] = test system: OVCAR-4
[37] = test system: SW-620
[38] = test system: SN12C
[39] = test system: NCI-H522
[40] = test system: SK-MEL-28
[41] = test system: SK-OV-3
[42] = test system: HOP-62
[43] = test system: HL-60
[44] = test system: MDA-N
[45] = test system: HCC 2998
[46] = test system: NCI-H23
[47] = test system: NCI-H460
[48] = test system: TK-10
[49] = test system: Malme-3M
[50] = test system: U-251
[51] = test system: ACHN
[52] = test system: EKVX
[53] = test system: RPMI-8226
[54] = test system: MCF7
[55] = test system: T47D
[56] = test system: SK-MEL-5
[57] = test system: SR
[58] = test system: CCRF-CEM
[59] = test system: 786-0

With `Cc1nc2ccccc2n1C(=O)c1c(F)c(F)c(F)c(F)c1F` the GI50 [1] was 4.14 µM (inactive), the GI50 [2] was 11.6 µM (inactive) and the GI50 [3] was 4.98 µM (inactive). The GI50 [4] was 18.8 µM (inactive), the GI50 [5] was 17.5 µM (inactive) and the GI50 [6] was 17.5 µM (inactive). The GI50 [7] was 26.5 µM (inactive), the GI50 [8] was 11.2 µM and the GI50 [9] was 20.3 µM (inactive). For the same compound, the GI50 [10] was 30.4 µM (inactive), the GI50 [11] was 16.7 µM (inactive) and the GI50 [12] was 26.5 µM (inactive). For the same compound, the GI50 [13] was 17.7 µM (inactive), the GI50 [14] was 3.13 µM (inactive) and the GI50 [15] was 21 µM (inactive). The GI50 [16] was 16.2 µM (inactive), the GI50 [17] was 8.93 µM (inactive) and the GI50 [18] was 24.3 µM (inactive). For the same compound, the GI50 [19] was 13.7 µM (inactive), the GI50 [20] was 28.8 µM (inactive) and the GI50 [21] was 17 µM (inactive). The GI50 [22] was 25.4 µM (inactive), the GI50 [23] was 14.8 µM (inactive) and the GI50 [24] was 15.5 µM (inactive). For the same compound, the GI50 [25] was 7.41 µM (inactive), the GI50 [26] was 4.99 µM (inactive) and the GI50 [27] was 16.1 µM (inactive). The GI50 [28] was 10.8 µM (inactive), the GI50 [29] was 29.5 µM (inactive) and the GI50 [30] was 27 µM (inactive). For the same compound, the GI50 [31] was 19.1 µM (inactive), the GI50 [32] was 4.07 µM (inactive) and the GI50 [33] was 19 µM (inactive). For the same compound, the GI50 [34] was 5.48 µM (inactive), the GI50 [35] was 11.7 µM (inactive) and the GI50 [36] was 14.5 µM (inactive). The GI50 [37] was 5.09 µM (inactive), the GI50 [38] was 6.01 µM (inactive) and the GI50 [39] was 3.01 µM (inactive). For the same compound, the GI50 [40] was 29.4 µM (inactive), the GI50 [41] was 22.3 µM (inactive) and the GI50 [42] was 23.9 µM (inactive). The GI50 [43] was 4.49 µM (inactive), the GI50 [44] was 8.69 µM (inactive) and the GI50 [45] was 17.6 µM (inactive). For the same compound, the GI50 [46] was 17 µM (inactive), the GI50 [47] was 5.09 µM (inactive) and the GI50 [48] was 18.3 µM (inactive). For the same compound, the GI50 [49] was 19.8 µM (inactive), the GI50 [50] was 19 µM (inactive) and the GI50 [51] was 22.9 µM (inactive). The GI50 [52] was 28.3 µM (inactive), the GI50 [53] was 4.15 µM (inactive) and the GI50 [54] was 5.12 µM (inactive). The GI50 [55] was 59.8 µM (inactive), the GI50 [56] was 12.1 µM (inactive) and the GI50 [57] was 2.34 µM (inactive). The GI50 [58] was 5.12 µM (inactive).
In the case of `CCOC(=O)c1ccc(NC2Oc3cc4c(cc3C(c3cc(OC)c(OC)c(OC)c3)C2C)OCO4)cc1` (stereo unspecified), the GI50 [1] is reported as 0.465 µM (active), the GI50 [2] is reported as 0.271 µM (active) and the GI50 [3] is reported as 0.31 µM (active). The GI50 [4] was 1.51 µM (inactive), the GI50 [5] was 0.376 µM (active) and the GI50 [6] was 0.369 µM (active). For the same compound, the GI50 [7] was 0.48 µM (active), the GI50 [8] was 0.506 µM and the GI50 [9] was 0.566 µM (active). The GI50 [10] was 0.847 µM (active), the GI50 [11] was 0.325 µM (active) and the GI50 [12] was 1.24 µM (inactive). For the same compound, the GI50 [13] was 0.935 µM (active), the GI50 [14] was 0.396 µM (active) and the GI50 [15] was 0.474 µM (active). For the same compound, the GI50 [16] was 0.516 µM (active), the GI50 [17] was 0.61 µM (active) and the GI50 [18] was 0.352 µM (active). For the same compound, the GI50 [20] was 0.269 µM (active), the GI50 [21] was 0.351 µM (active) and the GI50 [22] was 0.304 µM (active). For the same compound, the GI50 [23] was 0.236 µM (active), the GI50 [24] was 0.552 µM (active) and the GI50 [25] was 0.675 µM (active). The GI50 [26] was 0.148 µM (active), the GI50 [27] was 0.46 µM (active) and the GI50 [28] was 0.522 µM (active). The GI50 [29] was 0.617 µM (active), the GI50 [30] was 0.675 µM (active) and the GI50 [31] was 0.48 µM (active). For the same compound, the GI50 [32] was 0.41 µM (active), the GI50 [33] was 3.94 µM (inactive) and the GI50 [34] was 0.329 µM (active). The GI50 [35] was 0.938 µM (active), the GI50 [36] was 0.649 µM (active) and the GI50 [37] was 0.339 µM (active). For the same compound, the GI50 [38] was 1.35 µM (inactive), the GI50 [39] was 0.416 µM (active) and the GI50 [40] was 32.4 µM (inactive). The GI50 [41] was 0.483 µM (active), the GI50 [42] was 0.789 µM (active) and the GI50 [59] was 0.556 µM (active). The GI50 [43] was 0.209 µM (active), the GI50 [44] was 0.186 µM (active) and the GI50 [45] was 2.13 µM (inactive). For the same compound, the GI50 [46] was 0.695 µM (active), the GI50 [47] was 0.445 µM (active) and the GI50 [48] was 15.6 µM (inactive). For the same compound, the GI50 [49] was 0.216 µM (active), the GI50 [50] was 0.433 µM (active) and the GI50 [51] was 0.769 µM (active). The GI50 [52] was 4.24 µM (inactive), the GI50 [53] was 0.296 µM (active) and the GI50 [54] was 0.402 µM (active). The GI50 [55] was 0.486 µM (active), the GI50 [56] was 0.294 µM (active) and the GI50 [57] was 0.296 µM (active). For the same compound, the GI50 [58] was 0.371 µM (active).
